Assay results taken from patent publication US7291627B2, “Dihydroimidazo[5.1-a]-beta-carboline derivatives, method for their preparation, and their application as a drug” (MACEF, priority 2001, dated 2007).

Columns and labels:
JA 657 chicks = assay: Chick sleep/sedation test (IM injection, 90 minute observation); type: in vivo; details: for Sed (sedation time as % of the period) / TA (time to torpor between injection and first stage of sleep) / TS (duration of the first sleep) / Tsed (total sedation time over the period): 90 min observation; for TS (mins) Placebo diff'ce: extension of first sleep compared with test controls
Procedure: (§1) The dihydroimidazo[5,1-a]-β-carboline derivatives of the invention, in particular those in the form of the methyl sulfonate, (soluble), were tested in chicks, and certain compounds that were active in the chick were administered in single doses to six Beagle dogs of both sexes for a polysomnographic study of at least 4 hours duration.
JA 657 chicks from Couvoir Gauguet, 44 Le Pin, were accustomed for at least 6 days to an alternating program of light and darkness with 12 hours of daylight and 12 hours of darkness at a regulated temperature of 25±2° C. They were fed ad libitum and were placed under test compounds in a vivarium in groups of 3 individuals with a mean weight of 100±10 g on the day of the test. At that age in this species, there is no effective meningeal (hemato-encephalic) barrier. The test products were injected in 3 doses (1, 3 and 10 mg/kg) intramuscularly (IM) in solution or in an aqueous suspension (1 drop of Tween 80 per ml), each to two batches of 3 chicks which were observed over 90 minutes. For each test series (18 vivaria), there was at least one batch of negative control chicks receiving the same volume (0.2 ml IM) of water for injectable preparations.
During the 90 minute observation period, the chicks were strongly stimulated every 15 minutes by presenting a full feeding trough, and each 5 minute period was given a grade from among the following 5 states, corresponding to the state of alertness over that period:
Mobile, sitting alert, drowsy, asleep, sleep-like state. The parameters studied were the time to torpor (TA) passed between injection and the first stage of sleep, the duration of the first sleep (TS) and the total sedation time over the period (Tsed), expressed in minutes and as a % of the period (Sed).
To compare the results of tests carried out at different dates, the extension of the duration of the first sleep TS compared with the test controls was recorded.

Beagle dogs = assay: Polysomnographic study in the dog (EEG, 4 hours after oral gelule); type: in vivo; details: for Latency: Paradoxal (REM) sleep / Latency: Slow wave sleep (SWS) / Latency: Somnolence / Time passed at stage: Alertness / Time passed at stage: REM / Time passed at stage: SWS / Time passed at stage: Somnolence: oral gelule; for Time passed at stage: Alertness / Time passed at stage: REM / Time passed at stage: SWS / Time passed at stage: Somnolence: four hours of monitoring
Procedure: as §1
Polysomnographic tests were carried out for each of the three products from the series, on 6 dogs of both sexes, adults from the certified breeding kennels at HARLAN, 03 Gannat, using stainless steel electrodes surgically implanted for the duration of the test in contact with the frontal bones through the sinus, facing the motor regions of the encephalus. The Nishino et al method adapted by Tafani, Valin et al has been described elsewhere. It comprised recording two traces for eye movements, one trace for muscular movements (concentric electrode in the nape muscles) and two electroencephalographic (EEG) traces. The digital EEG trace was recorded using a Nicollet Schwarzer polygraph or the like (DELTAMED Coherence 2 and 3, MEI Galileo NT) for 4 hours after administering a 00 gelule containing 0, 16 or 48 mg of the test product (i.e. a mean of 0,1 and 3 mg/kg of live weight).
Each dog was monitored for 4 hours twice a day over two days, morning and afternoon, after one week's acclimatization to the monitoring cage, a 1 m^2, 80 cm high stainless steel cage of the SHOR-LINE type. For each dog, monitoring always commenced at the same time. A meal was distributed 30 minutes before starting monitoring.
The polysomnographic traces could differentiate between at least 4 stages for each consecutive 30 second period: awake, somnolence, slow sleep and paradoxal sleep. The latency of the appearance of each of the first nonalert episodes and the duration of each of the stages per 2 hour period were recorded for each dog. Comparing the means allowed the effect of the test products on the sleep microstructure to be studied.

Row | Compound | Sed (sedation time as % of the period) (JA 657 chicks; Dose: 1 mg/kg) [%] | TA (time to torpor between injection and first stage of sleep) (JA 657 chicks; Dose: 1 mg/kg) [min] | TS (duration of the first sleep) (JA 657 chicks; Dose: 1 mg/kg) [min] | Tsed (total sedation time over the period) (JA 657 chicks; Dose: 1 mg/kg) [min] | TS (mins) Placebo diff'ce (JA 657 chicks; Dose: 1 mg/kg) [min] | Sed (sedation time as % of the period) (JA 657 chicks; Dose: 3 mg/kg) [%] | TA (time to torpor between injection and first stage of sleep) (JA 657 chicks; Dose: 3 mg/kg) [min] | TS (duration of the first sleep) (JA 657 chicks; Dose: 3 mg/kg) [min] | Tsed (total sedation time over the period) (JA 657 chicks; Dose: 3 mg/kg) [min] | TS (mins) Placebo diff'ce (JA 657 chicks; Dose: 3 mg/kg) [min] | Sed (sedation time as % of the period) (JA 657 chicks; Dose: 10 mg/kg) [%] | TA (time to torpor between injection and first stage of sleep) (JA 657 chicks; Dose: 10 mg/kg) [min] | TS (duration of the first sleep) (JA 657 chicks; Dose: 10 mg/kg) [min] | Tsed (total sedation time over the period) (JA 657 chicks; Dose: 10 mg/kg) [min] | TS (mins) Placebo diff'ce (JA 657 chicks; Dose: 10 mg/kg) [min] | Latency: Paradoxal (REM) sleep (Beagle dogs; 1 mg) [min] | Latency: Slow wave sleep (SWS) (Beagle dogs; 1 mg) [min] | Latency: Somnolence (Beagle dogs; 1 mg) [min] | Time passed at stage: Alertness (Beagle dogs; 1 mg) [min] | Time passed at stage: REM (Beagle dogs; 1 mg) [min] | other results
1 | CS(=O)(=O)O.Cc1ncc2n1CCc1c-2n(C)c2ccccc12 [Example 1, 3,11-dimethyl-5,6-dihydroimidazo[5,1-a]-β-carboline methane sulfonate] | 71.7 | 7 | 56.5 | 64.5 | 56 | 87.2 | 4.5 | 78.5 | 78.5 | 78 | 96.7 | 1 | 86 | 87 | 85.7 | 101 ± 80.3 | 52 ± 24.8 | 47 ± 19.1 | 139 ± 69.1 | 23 ± 19.1 | latency of the first somnolence (in words) (Beagle dogs; 1 and 3 mg/kg, versus placebo): clearer in the 3 mg/kg dose; Time passed at stage: SWS (Beagle dogs; 1 mg): 51 ± 42.3 min; Time passed at stage: Somnolence (Beagle dogs; 1 mg): 27 ± 10.4 min; Latency: Paradoxal (REM) sleep (Beagle dogs; 3 mg): 50 ± 22.2 min; Latency: Slow wave sleep (SWS) (Beagle dogs; 3 mg): 27 ± 8.0 min; Latency: Somnolence (Beagle dogs; 3 mg): 21 ± 7.1 min; Time passed at stage: Alertness (Beagle dogs; 3 mg): 106 ± 34.7 min; Time passed at stage: REM (Beagle dogs; 3 mg): 29 ± 13.7 min; Time passed at stage: SWS (Beagle dogs; 3 mg): 65 ± 30.2 min; Time passed at stage: Somnolence (Beagle dogs; 3 mg): 40 ± 10.9 min
2 | COc1ccc2[nH]c3c(c2c1)CCn1c-3cnc1C.CS(=O)(=O)O [Example 2, 8-methoxy-3-methyl-5,6-dihydroimidazo[5,1-a]-β-carboline methane sulfonate] | 27.8 | 16 | 3 | 25 | 3 | 69.4 | 8.5 | 41 | 62.5 | 41 | 92.2 | 7 | 83 | 83 | 83 | 114 ± 53 | 44 ± 16.3 | 40 ± 14.7 | 136 ± 40.3 | 13.5 ± 10.6 | Time passed at stage: SWS (Beagle dogs; 1 mg): 59 ± 20.5 min; Time passed at stage: Somnolence (Beagle dogs; 1 mg): 31 ± 4.6 min; Latency: Paradoxal (REM) sleep (Beagle dogs; 3 mg): 63 ± 21.1 min; Latency: Slow wave sleep (SWS) (Beagle dogs; 3 mg): 45 ± 5.4 min; Latency: Somnolence (Beagle dogs; 3 mg): 37 ± 6.7 min; Time passed at stage: Alertness (Beagle dogs; 3 mg): 123 ± 30.5 min; Time passed at stage: REM (Beagle dogs; 3 mg): 20 ± 9.5 min; Time passed at stage: SWS (Beagle dogs; 3 mg): 60 ± 26.9 min; Time passed at stage: Somnolence (Beagle dogs; 3 mg): 36 ± 15.4 min
3 | CS(=O)(=O)O.Cc1ncc2n1CCc1c-2[nH]c2ccc(Cl)cc12 [Example 13, 8-chloro-3-methyl-5,6-dihydroimidazo[5,1-a]-β-carboline methane sulfonate] | 57.8 | 16.5 | 33.5 | 52 | 33 | 81.1 | 9.5 | 73 | 73 | 73 | 95.6 | 4 | 86 | 86 | 85.7 | 63 ± 28.2 | 32 ± 11.5 | 25 ± 11.6 | 135 ± 44.3 | 21 ± 13.6 | Time passed at stage: SWS (Beagle dogs; 1 mg): 57 ± 26.5 min; Time passed at stage: Somnolence (Beagle dogs; 1 mg): 24 ± 2.6 min; Latency: Paradoxal (REM) sleep (Beagle dogs; 3 mg): 56 ± 19.5 min; Latency: Slow wave sleep (SWS) (Beagle dogs; 3 mg): 35 ± 11 min; Latency: Somnolence (Beagle dogs; 3 mg): 27 ± 9.1 min; Time passed at stage: Alertness (Beagle dogs; 3 mg): 122 ± 36.5 min; Time passed at stage: REM (Beagle dogs; 3 mg): 26 ± 13.5 min; Time passed at stage: SWS (Beagle dogs; 3 mg): 61 ± 24.9 min; Time passed at stage: Somnolence (Beagle dogs; 3 mg): 31 ± 7 min
